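Five concentrations, 48 hours, 96-well plates. The concentration for 50% growth inhibition is given as GI50. Definition used: TGI = concentration required for complete inhibition of growth.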
Tests used:
Assay in all cases: growth of human tumour cells (NCI), 48 h
OVCAR-4 ovarian = test system: OVCAR-4 ovarian
SR leukemia = test system: SR leukemia
SW-620 colon = test system: SW-620 colon
T-47D breast = test system: T-47D breast
SN12C renal = test system: SN12C renal
NCI-H226 lung = test system: NCI-H226 lung
PC-3 prostate = test system: PC-3 prostate
HS 578T breast = test system: HS 578T breast

Compound | GI50 (OVCAR-4 ovarian) [µM] | TGI (OVCAR-4 ovarian) [µM] | GI50 (SR leukemia) [µM] | TGI (SR leukemia) [µM] | GI50 (SW-620 colon) [µM] | TGI (SW-620 colon) [µM] | GI50 (T-47D breast) [µM] | TGI (T-47D breast) [µM] | GI50 (SN12C renal) [µM] | TGI (SN12C renal) [µM] | GI50 (NCI-H226 lung) [µM] | TGI (NCI-H226 lung) [µM] | GI50 (PC-3 prostate) [µM] | TGI (PC-3 prostate) [µM] | GI50 (HS 578T breast) [µM] | TGI (HS 578T breast) [µM]
O=C1C=CC(=O)c2c1ncc1c2nc2sccn21 | 27.7 | 59.8 | 3.53 | 35.3 | 14.7 | 77.7 | 31.9 | > 100 | 23.3 | 48.3 | 37.6 | > 100 | 15.2 | 30.6 | 12.7 | 50.8
COc1ccc(-c2ccccc2)cc1-c1c(Nc2cc(Cl)cc(Cl)c2O)c(=O)c1=O | 1.59 | > 50 | 1.61 | 21.8 | 1.7 | > 50 | 1.7 | > 50 | 1.48 | > 50 | 1.57 | > 50 | 1.37 | > 50 | 1.25 | 4.55
O=C(/C=C\c1ccc2ccccc2n1)c1cc(Cl)ccc1O | 5.25 | 24.6 | 2.48 | 8.11 | 1.84 | 3.84 | 3.68 | 19 | 9.58 | 24.4 | 9.41 | 38.2 | 6.47 | 38.2 | 16.2 | 62.6
COc1ccc(C2=C(c3cc(OC)c(OC)c(OC)c3)C(=O)OC2)cc1OC | 2.65 | > 100 | < 0.01 |  | 0.105 | > 100 | 54 | > 100 | 0.567 | 73.1 | 6.06 | > 28.5 | < 0.0151 | > 100 | 0.123 | 39.1
C=C(C)[C@@H]1CC[C@]2(C(=O)NCCNCCNCCN)CC[C@]3(C)[C@H](CC[C@@H]4[C@@]5(C)CCC(=O)C(C)(C)[C@@H]5CC[C@]43C)[C@@H]12 | 7.39 | 15.3 | 5.91 | 20.1 | 7.91 | 16.6 | 7.52 | 18.7 | 7.56 | 15.3 | 7.74 | 17.1 | 6.26 | 13.1 | 8.3 | 19.2
COc1cc2c(cc1OCCCN1CCN(c3cc(=O)oc4c(C)c(OC)ccc34)CC1)N=C[C@@H]1CCCN1C2=O | 2 | 10.1 | 0.248 | 0.598 | 1.81 | > 100 | 1.17 |  | 1.6 | 6.51 | 1.88 | 4.03 | 1.19 | 12.8 | 2.35 | 15.6
O=C(O)CCCNS(=O)(=O)c1ccc2ccccc2c1 |  | > 100 |  |  |  | > 100 |  |  |  | > 100 |  | > 100 |  |  |  | 
NC(N)=N/N=C/c1c(-c2ccc(Cl)c([N+](=O)[O-])c2)nc2ccccn12 |  |  |  |  | 1.46 | 3.16 | 2.08 | 5.01 | 1.87 | 3.66 |  |  | 1.37 | 2.65 | 24.2 | 60.2
